Literature values, collected in US20190263765A1, “SYNERGISTIC ANTICOAGULANT COMPOSITION” (priority 2018, published 2019).

Settings: background statement

| Compound | clearance from the body (in words) | clearance from the body [h] |
| --- | --- | --- |
| O=c1oc2ccccc2c(O)c1C1CC(c2ccc(-c3ccc(Br)cc3)cc2)Cc2ccccc21 (centres unmarked) [brodifacoum] | requires months |  |
| CC(=O)CC(c1ccccc1)c1c(O)c2ccccc2oc1=O (centres unmarked) [warfarin] |  | 72 to 96 |
